This is an account of results in patent publication US20240082212A1, “USE OF MDMA FOR TREATMENT OF STRESS-RELATED DISORDERS” (priority 2022, published 2024).

In one data set the target is Serotonin 5-HT2A (Homo sapiens, UniProt P28223). In words: Eurofins Panlabs radioligand binding panel, serotonin 5-HT2A.
The target of the next data set is T1, Serotonin 5-HT2C (Homo sapiens, UniProt P28335).
T1 sequence (P28335 33-458): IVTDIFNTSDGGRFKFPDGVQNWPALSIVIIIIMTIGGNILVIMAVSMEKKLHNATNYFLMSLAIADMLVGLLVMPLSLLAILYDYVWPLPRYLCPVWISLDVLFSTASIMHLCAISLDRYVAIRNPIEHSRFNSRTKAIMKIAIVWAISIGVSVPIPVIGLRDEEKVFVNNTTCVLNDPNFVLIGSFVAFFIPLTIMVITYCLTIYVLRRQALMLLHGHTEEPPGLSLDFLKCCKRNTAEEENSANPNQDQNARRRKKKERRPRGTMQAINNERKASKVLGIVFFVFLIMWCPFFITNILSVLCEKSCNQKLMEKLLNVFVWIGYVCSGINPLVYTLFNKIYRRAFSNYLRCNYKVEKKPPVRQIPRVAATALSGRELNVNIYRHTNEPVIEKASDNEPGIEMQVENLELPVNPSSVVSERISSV
Description: biochemical. In kind it is binding.

Data set [1] has as its target Nicotinic acetylcholine α3β4 (Homo sapiens, UniProt P30926+P32297). In words: Eurofins Panlabs radioligand binding panel, nicotinic acetylcholine α3β4.
For a further data set, the system named is C57BL/6 mice. In words: Mouse extinction of conditioned fear assay. Format: in vivo. As for the experimental part:
Racemic MDMA and R(−)-MDMA were evaluated for extinction of fear memory. The study utilized a mouse extinction of conditioned fear assay. A conditioned fear response is induced by pairing a previously neutral stimulus (conditioned stimulus; CS, such as an auditory tone) and aversive stimulus (unconditioned stimulus; US, such as […]). The fear response is later extinguished with repeated re-exposure to the CS in the absence of the US. This is a useful model for understanding learning and memory processes required for long-term recovery from PTSD, because it resembles exposure-based therapy, wherein repeated exposure to a fear-eliciting stimulus or memory promotes a reduced fear response to future reminders of the trauma. […] The current experiment investigated the ability of varying doses of R(−)-MDMA to facilitate extinction of conditioned fear in mice.
Standard rodent chow and water was available ad libitum.
The animal procedures were conducted according to established protocols approved by the IACUC committee and Melior Discovery Inc. Standard Operation Procedures (SOP). The behavioral procedure was adapted from Young et al., Transl Psychiatry 5, e634 (2015) with slight modifications. Mice were handled for two consecutive days for four minutes each day and injected with drug vehicles prior to the experiment. […] Fear conditioning was conducted in individual automated chambers built by Kinder Scientific (Poway, CA) that detect movement with infrared beams. On Day 1, Conditioning, each animal was placed in a chamber and presented a training session (Context A). An almond scent was present under the grid floor during the entire session. The training procedure consisted of a 2-minute habituation followed by a 30-second, 80 dB tone (CS). During the last 2 seconds of the tone, the animal received a 1 mA foot shock (US). This US-CS procedure occurred once for a total of one paired presentation of tone and shock. Freezing behavior (immobility) was recorded in 5-second intervals during the session. Percent baseline freezing behavior was determined in the 2-minute habituation period. After the session, animals were returned to their cages in the holding room. Animals were not manipulated on Day 2. On Day 3, Extinction Training, two days (48 hours) following fear conditioning, each animal was placed in Context B, in which the tactile and odor cues of the conditioning chambers were altered with a different (lemon) scent and black Plexiglas floor placed over the grid floor. Following a 2-minute acclimation period, the animal received four 30-second presentations of the CS (tone) in the absence of the US (foot shock), with a 45-second interval between presentations and 30 seconds of chamber consolidation. Immobility was recorded in 5-second intervals to measure baseline freezing response to the altered context, and freezing response to each tone/cue presentation. On Day 3, each animal was administered vehicle or racemic MDMA by intraperitoneal (IP) injection at 30 minutes prior, to the extinction training session. On Days 4, 8, and 13, Extinction Testing sessions, each animal was placed in Context B. Following a 2-minute acclimation period, each animal received four 30-second presentations of the CS (tone) in the absence of the US (foot shock), with a 45-second interval between presentations and 30 seconds of chamber consolidation. Immobility was recorded in 5-second intervals to measure baseline freezing response to the altered context, and freezing response to each tone/cue presentation.
Each animal in each treatment group received IP administration of vehicle or R(−)-MDMA or racemic MDMA at 30 minutes prior to extinction training on day 3. […] Injection volumes were 10 mL/kg. The study was run in 2 cohorts. Data were presented as mean±standard error of the mean of the percentage (%) of the session time spent freezing (absence of movement other than respiration) or activity counts during the 2-minute acclimation period.

The test system of data set [2] is L-type calcium channel phenylalkylamine binding site. In words: Eurofins Panlabs radioligand binding panel, L-type calcium channel. The note with it: for % inhibition of binding or activity: 10 uM; for IC50 / Ki: 10 half-log concentrations, 0.3 nM to 10 μM, duplicate. The arrangement: species or system Rat.
[3] abbreviates: Day 3, racemic MDMA 7.8 mg/kg IP.
[4] abbreviates: Day 4, racemic MDMA 7.8 mg/kg IP.
[5] abbreviates: Days 8 and 13, single racemic MDMA 7.8 mg/kg IP on Day 3.
Where [6] appears, read: read-out: % inhibition of binding or activity.
The mark [7] stands for this setting: Days 8 and 13, single R-MDMA 30 mg/kg IP on Day 3.

Chain of Serotonin 5-HT2A (P28223 whole entry): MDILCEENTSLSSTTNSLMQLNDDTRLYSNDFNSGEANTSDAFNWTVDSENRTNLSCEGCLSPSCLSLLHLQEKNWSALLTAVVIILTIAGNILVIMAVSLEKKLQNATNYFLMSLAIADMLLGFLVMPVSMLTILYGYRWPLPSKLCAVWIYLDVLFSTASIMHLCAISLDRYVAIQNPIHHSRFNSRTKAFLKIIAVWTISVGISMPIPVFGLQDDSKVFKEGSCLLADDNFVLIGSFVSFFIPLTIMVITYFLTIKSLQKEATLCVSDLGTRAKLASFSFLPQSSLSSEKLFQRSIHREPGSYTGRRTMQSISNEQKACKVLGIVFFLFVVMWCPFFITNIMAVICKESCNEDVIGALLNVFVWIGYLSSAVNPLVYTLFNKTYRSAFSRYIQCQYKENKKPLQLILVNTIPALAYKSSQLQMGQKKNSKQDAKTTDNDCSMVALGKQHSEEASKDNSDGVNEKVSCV
Chain of Nicotinic acetylcholine α3β4 (P32297 32-505): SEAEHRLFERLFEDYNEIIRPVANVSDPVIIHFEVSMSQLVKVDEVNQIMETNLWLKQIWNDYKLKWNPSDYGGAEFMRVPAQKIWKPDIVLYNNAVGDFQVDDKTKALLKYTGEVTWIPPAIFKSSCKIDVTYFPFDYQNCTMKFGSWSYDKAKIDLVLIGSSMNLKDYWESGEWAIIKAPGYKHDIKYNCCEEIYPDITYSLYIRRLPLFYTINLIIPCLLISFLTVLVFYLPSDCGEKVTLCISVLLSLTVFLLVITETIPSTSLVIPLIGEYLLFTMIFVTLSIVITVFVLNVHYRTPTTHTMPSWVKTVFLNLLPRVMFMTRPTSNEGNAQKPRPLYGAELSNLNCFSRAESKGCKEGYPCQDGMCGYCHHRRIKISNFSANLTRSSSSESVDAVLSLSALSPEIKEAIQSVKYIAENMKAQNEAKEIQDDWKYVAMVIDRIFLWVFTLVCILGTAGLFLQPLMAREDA
Chain of Nicotinic acetylcholine α3β4 (P30926 22-498): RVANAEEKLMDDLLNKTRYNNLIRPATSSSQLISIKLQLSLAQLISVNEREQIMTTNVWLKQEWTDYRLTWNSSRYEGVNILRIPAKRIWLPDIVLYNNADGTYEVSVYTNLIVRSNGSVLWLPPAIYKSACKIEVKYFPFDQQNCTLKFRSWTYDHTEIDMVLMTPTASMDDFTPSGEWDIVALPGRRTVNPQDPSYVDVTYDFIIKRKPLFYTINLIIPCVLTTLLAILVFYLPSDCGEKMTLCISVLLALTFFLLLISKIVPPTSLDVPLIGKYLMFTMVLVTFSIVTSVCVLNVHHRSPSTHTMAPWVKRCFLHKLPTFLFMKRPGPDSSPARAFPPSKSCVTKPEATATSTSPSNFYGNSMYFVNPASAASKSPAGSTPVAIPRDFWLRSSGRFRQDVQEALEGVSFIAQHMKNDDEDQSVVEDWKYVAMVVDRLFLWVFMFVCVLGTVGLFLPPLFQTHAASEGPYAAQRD

`CNC(C)Cc1ccc2c(c1)OCO2` (racemic) [Racemic MDMA, 3,4-methylenedioxymethamphetamine]: the “% inhibition of binding or activity” value at Serotonin 5-HT2A (10 uM) is listed as 59%; on Serotonin 5-HT2C (10 µM), 87%; in data set [1] (10 uM), 66%. Moreover, the “activity counts vs vehicle” value was “significant increase in activity” in the data set on C57BL/6 mice (setting [3]), “significantly increased activity” with C57BL/6 mice (setting [4]) and “significant increases in activity” in the data set on C57BL/6 mice (setting [5]). The freezing vs vehicle result with C57BL/6 mice (setting [3]), in the data set on C57BL/6 mice (setting [4]) and in the data set on C57BL/6 mice (setting [5]) was “significantly reduced freezing” each time.

As for `CNC(C)Cc1ccc2c(c1)OCO2` (single isomer, unassigned) [R-MDMA, R(−)-3,4-methylenedioxymethamphetamine], the IC50 at Serotonin 5-HT2A was determined as 9.91 µM; in data set [2] it was 9.5 µM. Also, the Ki at Serotonin 5-HT2A was found to be 2830 nM; in data set [2], 9.23 µM. In addition, the inhibition at 10 µM stood at 78% at Serotonin 5-HT2C (setting [6]) and 55% in data set [1] (setting [6]). The “% inhibition of binding or activity” value in data set [2] is 55%. Also, the freezing vs vehicle result is reported as “reduced freezing” with C57BL/6 mice (Day 3 (extinction training, single IP dose 30 min prior), R-MDMA 17 and 30 mg/kg); “no significant effect on freezing” in the data set with C57BL/6 mice (Day 3, R-MDMA 10 mg/kg IP); “significantly reduced freezing” in the data set with C57BL/6 mice (Day 4 (day after single dose), R-MDMA 10, 17 and 30 mg/kg IP); “significantly reduced freezing” with C57BL/6 mice (setting [7]). Also, the “activity counts vs vehicle” value was “Significantly increased activity counts” in the data set with C57BL/6 mice (Day 3, all doses of R-MDMA (10, 17, 30 mg/kg IP)); “significantly increased activity” in the data set with C57BL/6 mice (Day 4, R-MDMA 30 mg/kg IP); “significant increases in activity” in the data set with C57BL/6 mice (setting [7]). The activity vs vehicle result in the data set with C57BL/6 mice (Day 4, R-MDMA 10 mg/kg IP) is reported as “without a significant increase in activity”. Further, the “locomotor activity vs vehicle” value in the data set on C57BL/6 mice (Days 3, 4, 8, 13, R-MDMA 17 mg/kg IP on Day 3) is reported as “significantly increased locomotor activity only on the day of administration”. Besides, in the data set with C57BL/6 mice (Days 8 and 13, single R-MDMA 17 mg/kg IP on Day 3), the freezing significantly reduced result is “but not on Days 8 and 13”.

As to `CNC(C)Cc1ccc2c(c1)OCO2` (single isomer, unassigned) [S-MDMA, S(+)-MDMA], in data set [2], the “% inhibition of binding or activity” value amounted to 51%, the IC50 amounted to 9.31 µM and the inhibition constant Ki amounted to 9.05 µM.
